A short description of data set [1]: Mouse hypercalcemia assay. To be noted: oral gavage for 6 days, serum ionized calcium 6 hours after last dosing.
Experimental: The Mouse Hypercalcemia Assay is a six day hypercalcemia test for toxicity and selectivity. Acceptable test results are levels greater than 300 μg/kg/day. Preferred assay results are levels greater than 1000 μg/day.
(4) Materials and Method for the Mouse Hypercalcemia Assay:
Weanling, virus—antibody-free, five to six weeks old female DBF mice (Harlan, Indianapolis, Ind.) are used for all the studies. Animals are allowed to acclimate to local vivarium conditions for 2 days. […] The animals then are divided into groups with 4-5 mice per group. Different doses of test compounds prepared in 10% Ethanol and 90% sesame oil are administered to mice orally via gavage for 6 days. 1α-25(OH)2D3 0.5 μg/kg/d was also given to one group of mice as the positive control. […] Raw data of group differences is assessed by analysis of variance (ANOVA) using Fisher's protected least significant difference (PLSD) where the significance level was P<0.05.
Data set [2] deals with rat osteocalcin promoter. In words: OCN (osteocalcin) promoter assay. Format: cell-based. As to conditions: RG-15 (ROS 17/2.8) cells, 48 hr treatment, luciferase reporter. On the procedure:
3. The OCN (osteocalcin) Promoter Assay
The OCN Promoter Assay is an indicator and marker for osteoporosis. […] Preferred assay results are less than 50 nM.
(3) Materials and Method for the OCN Promoter Assay:
The activation of osteocalcin by VDR ligands was evaluated in a rat osteoblast-like cell line RG-15 (ROS 17/2.8) stably expressing rat osteocalcin promoter fused with luciferase reporter gene. […] Confluent RG-15 cells maintained in DMEM/F-12 medium (3:1) containing 5% FBS, 300 μg/ml G418 and at 37° C. under 5% CO2/95% air atmosphere were trypsinized (0.25% trypsin) and plated into white opaque 96-well cell culture plates (25000 cells/well). After 24 hr, cells (in DMEM/F-12 medium+2% FBS) were treated with various concentrations of compounds, dissolved in DMSO. The final DMSO concentration remained at 0.01% (v/v). After 48 hr treatment, the medium was removed, cells were lysed with 50 μl of lysis buffer (From Luciferase reporter assay system, Roche Diagnostics, Indianapolis, Ind.) and assayed for luciferase activity using the Luciferase Reporter Gene Assay kit from Boehringer Mannheim as per manufacturer's specifications.

Data set [3] concerns the target T1, VDR (Homo sapiens, UniProt P11473).
T1 construct: the receptor expression vector pGal4-VDR-LBD (10 ng); expressed in transfected cells; host or cells: Caco-2 cells
T1 sequence (P11473 127-423 limits assumed): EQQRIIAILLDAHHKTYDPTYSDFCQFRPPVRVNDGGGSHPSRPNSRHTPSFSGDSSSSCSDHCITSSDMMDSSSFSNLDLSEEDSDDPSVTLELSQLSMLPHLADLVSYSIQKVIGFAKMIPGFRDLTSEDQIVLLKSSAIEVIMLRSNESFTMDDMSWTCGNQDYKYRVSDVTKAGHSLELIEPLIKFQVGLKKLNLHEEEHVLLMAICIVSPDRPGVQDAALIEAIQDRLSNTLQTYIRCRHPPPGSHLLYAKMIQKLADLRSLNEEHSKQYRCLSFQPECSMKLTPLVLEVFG
Briefly: Caco-2 cell co-transfection assay (VDR CTF). Format: cell-based. As to conditions: Caco-2 cells, pGal4-VDR-LBD co-transfection, luciferase reporter. The procedure:
2. The Caco-2 Cell Co-Transfection Assay:
The Caco-2 cell assay is an indicator for the undesirable condition of hypercalcemia. This co-transfection assay is a surrogate assay for in vivo calcemic activity of VDR ligands. […] Preferred assay results are greater than 1000 nM.
(2) Materials and Method for The Caco-2 Cell Assay:
Caco-2 cells, grown in phenol red free, DMEM (Invitrogen, Carlsbad, Calif.) containing 10% charcoal-stripped FCS (Hyclone, Logan, Utah), were transfected with Fugene 6 reagent (Roche Diagnostics, Indianapolis, Ind.). Cells (5000/well) were plated 18 h before transfection in a 96 well plate. The Cells were transfected with Gal4-responsive reporter pFRLuc (150 ng, Stratagene, La Jolla Calif.) and the receptor expression vector pGal4-VDR-LBD (10 ng), along with Fugene 6 reagent (0.2 μl/well). The DNA-Fugene complex was formed by incubating the mixture for 30 min at room temperature. The cells were transfected in triplicate for 5 h, and treated with various concentrations of VDR ligands (form 0.01 nM to 10,000 nM concentration range) 18 h post-transfection. The luciferase activity was quantified using Steady-Glo reagent kit (Promega, Madison, Wis.) as per manufacturer's specifications.
A general note: Reporter assays use an easily measured gene product as a stand-in for the process of interest.

Data on 21 molecules can be found in US7750184B2, “Vitamin D receptor modulators” (Eli Lilly and Company, priority 2003, dated 2010).

One may read the EC50 as the concentration needed to bring the measured effect to its halfway point. As to `CCC(CC)(c1ccc(OCC(O)C(C)(C)C)c(C)c1)c1ccc(N(C)S(C)(=O)=O)c(C)c1` (single isomer, unassigned) [Ex. 20, N-(4-{1-ethyl-1-[4-(2-hydroxy-3,3-dimethyl-butoxy)-3-methyl-phenyl]-propyl}-2-methyl-phenyl)-N-methyl-methanesulfonamide], the “Mouse Hypercal” value in data set [1] is 500 µg/kg/day. For the same molecule, in data set [2], the EC50 was 28.1 nM.

`CCC(CC)(c1ccc(OCC(O)CO)c(C)c1)c1ccc(OCC(O)C(C)(C)C)c(C)c1` (centres unmarked) [BB, 3-(4-{1-Ethyl-1-[4-(2-hydroxy-3,3-dimethyl-butoxy)-3-methyl-phenyl]-propyl}-2-methyl-phenoxy)-propane-1,2-diol, reference compound]: the “Mouse Hypercal” value in data set [1] was 20 µg/kg/day. In data set [2] (Rattus norvegicus, 48 h), the EC50 is 11 nM.

Regarding `CCC(CC)(c1ccc(OCC(=O)C(C)(C)C)c(C)c1)c1ccc(OS(C)(=O)=O)c(C)c1` [Ex. 4, 3′-[4-(2-oxo-3,3-dimethylbutoxy)-3-methylphenyl]-3′-[4-(methanesulfonyloxy)-3-methylphenyl]pentane], the concentration for a half-maximal effect (EC50) stood at 0.91 nM in data set [2] (Rattus norvegicus, 48 h) and 164 nM in data set [3].

On to `CCC(CC)(c1ccc(OCC(=O)C(C)(C)C)c(C)c1)c1ccc(OS(=O)(=O)CC)c(C)c1` [Ex. 8, 3′-[4-(2-oxo-3,3-dimethylbutoxy)-3-methylphenyl]-3′-[4-(ethanesulfonyloxy)-3-methylphenyl]pentane], for which the EC50 was found to be 3.48 nM in data set [2] (Rattus norvegicus, 48 h) and 34.8 nM in data set [3].

`CCC(CC)(c1ccc(OCC(O)C(C)(C)C)c(C)c1)c1ccc(OS(=O)(=O)CC)c(C)c1` (centres unmarked) [Ex. 9, 3′-[4-(2-hydroxy-3,3-dimethylbutoxy)-3-methylphenyl]-3′-[4-(ethanesulfonyloxy)-3-methylphenyl]pentane]: a half-maximal response in data set [3] (EC50) required 13 nM.

On to `CCC(CC)(c1ccc(OCC(C)(O)C(C)(C)C)c(C)c1)c1ccc(OS(=O)(=O)CC)c(C)c1` (centres unmarked) [Ex. 10, 3′-[4-(2-hydroxy-2-methyl-3,3-dimethylbutoxy)-3-methylphenyl]-3′-[4-(ethanesulfonyloxy)-3-methylphenyl]pentane], for which the EC50 was 0.3 nM in data set [2] (Rattus norvegicus, 48 h) and 15 nM in data set [3].

Consider `CCC(CC)(c1ccc(NS(C)(=O)=O)c(C)c1)c1ccc(OCC(O)C(C)(C)C)c(C)c1` (centres unmarked) [Ex. 12, 3′-[4-(2-Hydroxy-3,3-dimethylbutoxy)-3-methylphenyl]-3′-[4-(methanesulfonylamino)-3-methylphenyl]pentane], for which the EC50 in data set [2] (Rattus norvegicus, 48 h) is 2.33 nM; in data set [3], 112 nM.

For the molecule `CCC(CC)(c1ccc(OCC(O)C(C)(C)C)c(C)c1)c1ccc(N(C)S(C)(=O)=O)c(C)c1` (centres unmarked) [Ex. 19, N-(4-{1-Ethyl-1-[4-(2-hydroxy-3,3-dimethyl-butoxy)-3-methyl-phenyl]-propyl}-2-methyl-phenyl)-N-methyl-methanesulfonamide], the EC50 in data set [2] (Rattus norvegicus, 48 h) is 16.8 nM.

On to `CCC(CC)(c1ccc(OCC(=O)C(C)(C)C)c(C)c1)c1ccc(N(S(=O)(=O)CC)S(=O)(=O)CC)c(C)c1` [Ex. 22, N-(4-{1-[4-(3,3-dimethyl-2-oxo-butoxy)-3-methyl-phenyl]-1-ethyl-propyl}-2-methyl-phenyl)-N,N-bis-ethanesulfonamide], for which, in data set [1], the “Mouse Hypercal” value was 500 µg/kg/day. Besides, in data set [2] (Rattus norvegicus, 48 h), the EC50 is 29.8 nM.

For `CCC(CC)(c1ccc(OCC(=O)C(C)(C)C)c(C)c1)c1ccc(N(C)S(=O)(=O)CC)c(C)c1` [Ex. 24, N-(4-{1-[4-(3,3-Dimethyl-2-oxo-butoxy)-3-methyl-phenyl]-1-ethyl-propyl}-2-methyl-phenyl)-N-methyl-ethanesulfonamide], the “Mouse Hypercal” value in data set [1] is under 1000 µg/kg/day. Also, in data set [2] (Rattus norvegicus, 48 h), the EC50 was 44.6 nM.

For `CCC(CC)(c1ccc(NS(=O)(=O)C(F)(F)F)c(C)c1)c1ccc(OCC(=O)C(C)(C)C)c(C)c1` [Ex. 27, N-(4-{1-[4-(3,3-Dimethyl-2-oxo-butoxy)-3-methyl-phenyl]-1-ethyl-propyl}-2-methyl-phenyl)-trifluoromethanesulfonamide], in data set [1], the “Mouse Hypercal” value is 500 µg/kg/day. The EC50 in data set [2] (Rattus norvegicus, 48 h) is 10.6 nM.

For `CCC(CC)(c1ccc(OCC(=O)C(C)(C)C)c(C)c1)c1ccc(N(S(=O)(=O)CC(F)(F)F)S(=O)(=O)CC(F)(F)F)c(C)c1` [Ex. 28, N-(4-{1-[4-(3,3-Dimethyl-2-oxo-butoxy)-3-methyl-phenyl]-1-ethyl-propyl}-2-methyl-phenyl)-N,N-bis-2,2,2-trifluoro-ethanesulfonamide], the “Mouse Hypercal” value in data set [1] was 1000 µg/kg/day. Moreover, in data set [2] (Rattus norvegicus, 48 h), the EC50 came out at 17.9 nM.

`CCC(CC)(c1ccc(NS(=O)(=O)CC(F)(F)F)c(C)c1)c1ccc(OCC(=O)C(C)(C)C)c(C)c1` [Ex. 29, N-(4-{1-[4-(3,3-Dimethyl-2-oxo-butoxy)-3-methyl-phenyl]-1-ethyl-propyl}-2-methyl-phenyl)-2,2,2-trifluoro-ethanesulfonamide]: in data set [1], the “Mouse Hypercal” value is 100 µg/kg/day. For the same molecule, the EC50 in data set [2] (Rattus norvegicus, 48 h) was 4.58 nM.

In the case of `CCC(CC)(c1ccc(OCC(=O)C(C)(C)C)c(C)c1)c1ccc(N(CCSC)S(C)(=O)=O)c(C)c1` [Ex. 30, N-(4-{1-[4-(3,3-Dimethyl-2-oxo-butoxy)-3-methyl-phenyl]-1-ethyl-propyl}-2-methyl-phenyl)-N-(2-methylsulfanyl-ethyl)-methanesulfonamide], the concentration giving a half-maximal response (EC50) in data set [2] (Rattus norvegicus, 48 h) stood at 104 nM.

In the case of `CCSCCS(=O)(=O)Nc1ccc(C(CC)(CC)c2ccc(OCC(=O)C(C)(C)C)c(C)c2)cc1C` [Ex. 31, N-(4-{1-[4-(3,3-Dimethyl-2-oxo-butoxy)-3-methyl-phenyl]-1-ethyl-propyl}-2-methyl-phenyl)-2-ethylsulfanyl-ethanesulfonamide], the EC50 in data set [2] (Rattus norvegicus, 48 h) was 44 nM.

As for `CCC(CC)(c1ccc(NS(=O)(=O)CCS(=O)(=O)CC)c(C)c1)c1ccc(OCC(=O)C(C)(C)C)c(C)c1` [Ex. 32, N-(4-{1-[4-(3,3-Dimethyl-2-oxo-butoxy)-3-methyl-phenyl]-1-ethyl-propyl}-2-methyl-phenyl)-2-ethanesulfonyl-ethanesulfonamide], in data set [2] (Rattus norvegicus, 48 h), the EC50 came to 240 nM.

Regarding `CCC(CC)(c1ccc(NS(=O)(=O)CCSC(C)C)c(C)c1)c1ccc(OCC(=O)C(C)(C)C)c(C)c1` [Ex. 33, N-(4-{1-[4-(3,3-Dimethyl-2-oxo-butoxy)-3-methyl-phenyl]-1-ethyl-propyl}-2-methyl-phenyl)-2-isopropylsulfanyl-ethanesulfonamide], the EC50 in data set [2] (Rattus norvegicus, 48 h) is 49.4 nM.

Take `CCC(CC)(c1ccc(NS(=O)(=O)CCS(=O)(=O)C(C)C)c(C)c1)c1ccc(OCC(=O)C(C)(C)C)c(C)c1` [Ex. 34, N-(4-{1-[4-(3,3-Dimethyl-2-oxo-butoxy)-3-methyl-phenyl]-1-ethyl-propyl}-2-methyl-phenyl)-2-(propane-2-sulfonyl)-ethanesulfonamide]: the EC50 in data set [2] (Rattus norvegicus, 48 h) was found to be 374 nM.

Consider `CCC(CC)(c1ccc(OCC(O)C(C)(C)C)cc1)c1ccc(OS(C)(=O)=O)c(C)c1` (centres unmarked) [Ex. 37, 3′-[4-(2-hydroxy-3,3-dimethylbutoxy)-phenyl]-3′-[4-methylsulfonyloxy-3-methylphenyl]pentane], for which the EC50 in data set [2] (Rattus norvegicus, 48 h) was found to be 67.2 nM; in data set [3], 308 nM.

With `CCC(CC)(c1ccc(OS(C)(=O)=O)cc1)c1ccc(OCC(=O)C(C)(C)C)c(C)c1` [Ex. 38, 3′-[4-(2-oxo-3,3-dimethylbutoxy)-3-methylphenyl]-3′-[4-methylsulfonyloxy-phenyl]pentane], the “Mouse Hypercal” value in data set [1] was under 300 µg/kg/day. Besides, in data set [2] (Rattus norvegicus, 48 h), the EC50 amounted to 2.08 nM.

Turning to `CCC(CC)(c1ccc(OCC(=O)C(C)(C)C)cc1)c1cc(C)c(OS(C)(=O)=O)c(C)c1` [Ex. 41, 3′-[4-(2-oxo-3,3-dimethylbutoxy)-phenyl]-3′-[3,5-dimethyl-4-methylsulfonyloxy-phenyl]pentane], the EC50 stood at 111 nM in data set [2] (Rattus norvegicus, 48 h) and 614 nM in data set [3].
